Experimental data published in PubChem BioAssay (NCI).
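Grown in 96-well plates, cells were treated for 48 hours with each compound at five concentrations. Insufficient inhibition: endpoint recorded as highest concentration tested. TGI: concentration producing complete growth inhibition.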

Columns and labels:
Experiment in all cases: growth of human tumour cells (NCI), 48 h
MALME-3M melanoma = system: MALME-3M melanoma
SK-MEL-2 melanoma = system: SK-MEL-2 melanoma
OVCAR-4 ovarian = system: OVCAR-4 ovarian
SK-MEL-5 melanoma = system: SK-MEL-5 melanoma
RXF 393 renal = system: RXF 393 renal
RPMI-8226 leukemia = system: RPMI-8226 leukemia
HOP-92 NSCLC = system: HOP-92 NSCLC
NCI-H226 lung = system: NCI-H226 lung
NCI-H522 lung = system: NCI-H522 lung
TK-10 renal = system: TK-10 renal
SR leukemia = system: SR leukemia
NCI-H23 lung = system: NCI-H23 lung
HS 578T breast = system: HS 578T breast
HCT-15 colon = system: HCT-15 colon
UACC-62 melanoma = system: UACC-62 melanoma
SF-295 CNS = system: SF-295 CNS
M14 melanoma = system: M14 melanoma
HT29 colon = system: HT29 colon
IGROV1 ovarian = system: IGROV1 ovarian
HOP-62 NSCLC = system: HOP-62 NSCLC
UACC-257 melanoma = system: UACC-257 melanoma
OVCAR-5 ovarian = system: OVCAR-5 ovarian
OVCAR-3 ovarian = system: OVCAR-3 ovarian
MCF7 breast = system: MCF7 breast
LOX IMVI melanoma = system: LOX IMVI melanoma
HCC-2998 colon = system: HCC-2998 colon
SNB-19 CNS = system: SNB-19 CNS
A549 NSCLC = system: A549 NSCLC
NCI/ADR-RES ovarian = system: NCI/ADR-RES ovarian
KM12 colon = system: KM12 colon
COLO 205 colon = system: COLO 205 colon
MDA-N = system: MDA-N
SN12C renal = system: SN12C renal
CCRF-CEM leukemia = system: CCRF-CEM leukemia
DU-145 prostate = system: DU-145 prostate
EKVX NSCLC = system: EKVX NSCLC
U251 CNS = system: U251 CNS
SW-620 colon = system: SW-620 colon
HL-60(TB) leukemia = system: HL-60(TB) leukemia
MDA-MB-435 = system: MDA-MB-435
SK-OV-3 ovarian = system: SK-OV-3 ovarian
T-47D breast = system: T-47D breast
SK-MEL-28 melanoma = system: SK-MEL-28 melanoma
K-562 leukemia = system: K-562 leukemia
SF-268 CNS = system: SF-268 CNS
HCT-116 colon = system: HCT-116 colon
SF-539 CNS = system: SF-539 CNS
OVCAR-8 ovarian = system: OVCAR-8 ovarian
ACHN renal = system: ACHN renal
UO-31 renal = system: UO-31 renal
NCI-H460 lung = system: NCI-H460 lung
MDA-MB-231 breast = system: MDA-MB-231 breast
786-0 renal = system: 786-0 renal
PC-3 prostate = system: PC-3 prostate
SNB-75 CNS = system: SNB-75 CNS
MOLT-4 leukemia = system: MOLT-4 leukemia

Measured: TGI

CCO/C=C(\C(=O)OC)S(=O)(=O)c1ccc(C)cc1
> 100 µM: all assays above
